Source: patent US20230203060A1 (GENFLEET THERAPEUTICS (SHANGHAI) INC., priority 2020, published 2023)

How the values were obtained:
[1] = system: phosphorylated ERK downstream of KRAS G12C in MIA PaCa2 cells; experiment: Cell p-ERK detection experiment (HTRF) in MIA PaCa2; format: cell-based, human; settings: Homo sapiens, MIA PaCa-2, 2 h, MIA PaCa2 cells, 2 hours with compound, Advance ERK phospho-T202/Y204 HTRF kit; read-out: p-ERK IC50
In short: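 Phospho-ERK (T202/Y204) measured by HTRF after 30 min lysis and 4 h antibody incubation in MIA PaCa2 (KRAS G12C) cells, seeded at 2.5E4 per well and treated 2 h with compounds in 3.16-fold steps, final DMSO 0.1%. IC50 from a four-parameter fit of percent inhibition relative to DMSO and blank wells.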

KRAS G12C = target: T1, KRAS G12C (Homo sapiens, UniProt P01116, G12C); experiment: KRAS G12C NEA-HTRF experiment (SOS1-catalyzed displacement of GDP by GTP); format: biochemical
T1 construct: purchased Reactionbiology
T1 sequence (P01116 1-188 isoform P01116-2 G12C): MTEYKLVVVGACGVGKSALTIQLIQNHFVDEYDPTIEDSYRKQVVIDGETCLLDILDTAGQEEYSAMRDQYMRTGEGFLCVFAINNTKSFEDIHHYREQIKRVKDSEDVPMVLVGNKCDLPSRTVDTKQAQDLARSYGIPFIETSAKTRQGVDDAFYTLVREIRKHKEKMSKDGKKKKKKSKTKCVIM
In short: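 His-tagged KRAS G12C preloaded with DY647-GDP was preincubated 15 min at 20 °C with compound, then exchanged with SOS1 (0.2 μM working solution) and GTP (200 μM working solution) for 2 h at 20 °C in the dark. HTRF 665/615 nm ratio with anti-His-Tb was normalised to T0 and no-compound controls; IC50 by four-parameter fit.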

Row | SMILES | IC50 [1] | IC50 (KRAS G12C)
1 | C=CC(=O)N1CCN2C(=O)c3c(N4CC[C@H](OC)[C@@H]4C)nc(-c4c(O)cccc4F)c(Cl)c3OC[C@H]2C1 [Z347-1, (6aR)-8-acryloyl-4-chloro-3-(2-fluoro-6-hydroxyphenyl)-1-((2S,3S)-3-methoxy-2-methylpyrrolidin-1-yl)-6,6a,7,8,9,10-hexahydro-12H-pyrazino[2,1-c]pyrido[3,4-f][1,4]oxazepin-12-one] | 11 nM | 12 nM
2 | C=CC(=O)N1CCN2C(=O)c3c(N4C[C@@H](N(C)CCOC)C[C@@H]4C)nc(-c4c(O)cccc4F)c(Cl)c3OC[C@H]2C1 [Z358-1] | 23 nM | 26.4 nM
3 | C=CC(=O)N1CCN2C(=O)c3c(N4C[C@@H](OC)C[C@@H]4C)nc(-c4c(O)cccc4F)c(F)c3OC[C@H]2C1 [Z359-1, (6aR)-8-actyloyl-4-fluoro-3-(2-fluoro-6-hydroxyphenyl)-1-((2S,4S)-4-methoxy-2-methylpyrrolidin-1-yl)-6,6a,7,8,9,10-hexahydro-12H-pyrazino[2,1-c]pyrido[3,4-f][1,4]oxazepin-12-one] | 93 nM | 83.8 nM

Continued, values first:

Row | IC50 [1] | IC50 (KRAS G12C) | SMILES
4 | 84 nM | 74 nM | C=CC(=O)N1CCN2C(=O)c3c(N4CCN(C)C[C@@H]4C)nc(-c4c(F)ccc(Cl)c4O)c(Cl)c3OC[C@H]2C1 [Z342, (6aR)-8-acryloyl-4-chloro-3-(3-chloro-6-fluoro-2-hydroxyphenyl)-1-((S)-2,4-dimethylpiperazin-1-yl)-6,6a,7,8,9,10-hexahydro-12H-pyrazino[2,1-c]pyrido[3,4-f][1,4]oxazepin-12-one]
5 | 119 nM | 101 nM | C=CC(=O)N1CCN2C(=O)c3c(N4CCN(C)C[C@@H]4C)nc(-c4c(O)ccc(Cl)c4F)c(Cl)c3OC[C@H]2C1 [Z343, (6aR)-8-acryloyl-4-chloro-3-(3-chloro-2-fluoro-6-hydroxyphenyl)-1-((S)-2,4-dimethylpiperazin-1-yl)-6,6a,7,8,9,10-hexahydro-12H-pyrazino[2,1-c]pyrido[3,4-f][1,4]oxazepin-12-one]
6 | 10 nM | 10 nM | C=CC(=O)N1CCN2C(=O)c3c(N4CC(N5CCOCC5)CC4(C)C)nc(-c4c(O)cccc4F)c(Cl)c3OC[C@H]2C1 (stereo partly drawn) [Z344, (6aR)-8-acryloyl-4-chloro-1-((2,2-dimethyl-4-morpholinopyrrolidin-1-yl))-3-(2-fluoro-6-hydroxyphenyl)-6,6a,7,8,9,10-hexahydro-12H-pyrazino[2,1-c]pyrido[3,4-f][1,4]oxazepin-12-one]
7 | 253 nM | 161 nM | C=CC(=O)N1CCN2C(=O)c3c(N4CCN(C)C[C@@H]4C)nc(-c4c(F)ccc(F)c4O)c(Cl)c3OC[C@H]2C1 [Z356, (6aR)-8-acryloyl-4-chloro-3-(3,6-difluoro-2-hydroxyphenyl)-1-((S)-2,4-dimethylpiperazin-1-yl)-6,6a,7,8,9,10-hexahydro-12H-pyrazino[2,1-c]pyrido[3,4-f][1,4]oxazepin-12-one]
8 | 29 nM | 68.6 nM | C=CC(=O)N1CCN2C(=O)c3c(N4CCN(C)C(C)C4C)nc(-c4c(O)cccc4F)c(Cl)c3OC[C@H]2C1 (stereo partly drawn) [Z369, (6aR)-8-acryloyl-4-chloro-3-(2-fluoro-6-hydroxyphenyl)-1-(2,3,4-trimethylpiperazin-1-yl)-6,6a,7,8,9,10-hexahydro-12H-pyrazino[2,1-c]pyrido[3,4-f][1,4]oxazepin-12-one]
